Reference: patent publication US10744114B2, “Use of eupatilin as pharmaceutical composition for prevention and treatment of fibrosis using EMT inhibitory activity” (OSTEONEUROGEN INC., priority 2016, dated 2020)

How the values were obtained:
ONGHEPA1 cells = experiment: Global gene expression analysis (RNA-Seq) and target gene analysis; type: cell-based, mouse; conditions: TGF-β vs TGF-β+eupatilin, 24 hr
Procedure: For a mechanism for the therapeutic effect on fibrosis, the global gene expression of DMSO-treated ONGHEPA1 cells (a control group), ONGHEPA1 cells in which fibrosis was induced by TGF-β, and ONGHEPA1 cells treated with TGF-β and eupatilin was measured.
The cells were treated with DMSO, TGF-β or eupatilin for 24 hr, and total RNA was isolated to manufacture a library, after which about 10,000 expressed mRNA species in a total transcriptome of 30 Gb were analyzed using an Illumina High-seq sequencer.

[1] = tested on: bleomycin-induced pulmonary fibrosis; experiment: Fibrosis of lung tissue induced by bleomycin (Masson's trichrome); type: in vivo, C57BL/6J mice; conditions: 12 days after bleomycin 40 μg/head
Description: Five-week-old male C57BL/6J mice (weight: 18.2 to 20.5 g) (KOATECH, Korea) were used as experimental animals, and each test group was composed of five experimental animals, as is summarized in Table 1 below.
Pulmonary fibrosis was induced by directly injecting a bleomycin solution into the lungs via the trachea according to the intratracheal instillation (IT) method of Kremer, Laxer and Berkman et al. Specifically, C57BL/6J mice were anesthetized through inhalation with 70% N2O and 30% O2 gas and 1.5% isoflurane, and the skin of the anterior neck thereof was excised and the organs under the muscle thereof were exposed and then carefully excised using ophthalmic surgical scissors. 50 μL of a bleomycin solution in distilled water was directly injected into the lungs all at once via the excised organ using a 1 mL syringe fitted with a 19-gauge injection needle having a blunt tip. […]
Eupatilin was used by being dissolved in a DPBS buffer (containing 1% DMSO), and the amount of eupatilin that was administered was 1 mL/kg, and the dose for each individual was calculated based on the recent body weight thereof 12 days after the administration of bleomycin, eupatilin was forcibly nasally administered once a day (5 times a week) for 1 week using a micropipette. […]

## COc1ccc(-c2cc(=O)c3c(O)c(OC)c(O)cc3o2)cc1OC [eupatilin, 2-(3,4-dimethoxyphenyl)-5,7-dihydroxy-6-methoxy-chromone]
ONGHEPA1 cells
  Log2fc Latent transforming growth factor beta binding protein 4 (Ltbp4): −infinite
  Log2fc Leprecan 1 (Lepre1): 1.75
  Log2fc Lethal giant larvae homolog 1 (Ligi1): infinite
  Log2fc Lysyl oxidase-like 2 (Loxl2): 1.93
  Log2fc Microtubule-associated protein 4 (Map4): −infinite
  Log2fc Multiple coagulation factor deficiency 2 (Mcfd2): −1.28
  Log2fc Natriuretic peptide receptor 3 (Npr3): 2.82
  Log2fc Nischarin (Nisch): infinite
  Log2fc Olfactomedin 2 (Olfm2): 1.9
  Log2fc Oxysterol binding protein-like 9 (Osbpl9): −infinite
  Log2fc Palladin, cytoskeletal associated protein (Palld): infinite
  Log2fc Periostin (Postn): −4.92
  Log2fc Perlecan (Heparan sulfate proteoglycan2) (Hspg2): infinite
  Log2fc Pleckstrin and sec7 domain containing 3 (Psd3): 1.43
  Log2fc Pleiotrophin (Ptn): 2.06
  Log2fc Procollagen lysine, 2-oxoglutarate 5-dioxygenase 2 (Plod2): −1.48
  Log2fc Procollagen-lysine, 2-oxoglutarate 5-dioxygenase 3 (Plod3): −2.01
  Log2fc Procollagen-proline, 2-oxoglutarate 4-dioxygenase (proline 4-hydroxylase), alpha 1 polypeptide (P4ha1): −1.81
  Log2fc Prosaposin (Psap): infinite
  Log2fc Prostate androgen-regulated mucin-like protein 1 (Parm1): 1.57
  Log2fc Protein FAM 53B (Fam53b): infinite
  Log2fc Protein disulfide isomerase associated 6 (Pdia6): 1.85
  Log2fc Ring finger protein 145 (Rnf145): −infinite
  Log2fc Septin2 (Sept2): infinite
  Log2fc Serin (or cysteine) peptidase inhibitor, clade F, member 1 (Serpinf1): 1.99
  Log2fc Serine (or cysteine) peptidase inhibitor, clade E, member 1 (Serpine 1): −1.78
  Log2fc Slit homolog 3 (Slit3): 3.65
  Log2fc Spectrin alpha, erythrocytic 1 (Spta1): 4.01
  Log2fc Spectrin beta, non-erythrocytic 1 (Sptbn1): infinite
  Log2fc Spectrin repeat containing nuclear envelope 2 (Syne2): −infinite
  Log2fc Surfeit 1 (SURF1): −infinite
  Log2fc Synaptopodin (Synpo): −infinite
  Log2fc TEA Domain Transcription factor 1 (TEAD1): −infinite
  Log2fc TLC domain-containing protein 2 (Tlcd2): infinite
  Log2fc Tankyrase, TRF1-interacting ankyrin-related ADP-ribose polymerase 2 (Tnks2): −infinite
  Log2fc Tenascin C (Tnc): 5.1
  Log2fc Thrombospondin, type I domain containing 7A (Thsd7a): 5.06
  Log2fc Thymoma viral proto-oncogene 1 (Akt1): −infinite
  Log2fc Tissue inhibitor of metalloproteinase 3 (Timp3): infinite
  Log2fc TraB domain containing 2B (Trabd2b): 2.75
  Log2fc Transformation/transcription domain-associated protein (Trrap): −infinite
  Log2fc Transforming, acidic coiled-coil containing protein 2 (Tacc2): infinite
  Log2fc Tropomyosin 1, alpha (Tpm1): infinite
  Log2fc Tubulin-specific chaperone d (Tbcd): 2.11
  Log2fc Ubiquitin-like modifier activating enzyme 1 (Uba1): infinite
  Log2fc Vinculin (Vcl): infinite
  Log2fc WNK lysine deficient protein kinase 1 (Wnk1): −infinite
  Log2fc Willians-Beuren syndrome chromosome region 17 homolog (Wbscr17): −2.83
  Log2fc c-fos induced growth factor (Figf): 2.49
  Log2fc rho/rac guanine nucleotide exchange factor (GEF) 2 (Arhgef2): −infinite
  Log2fc v-myc myelocytomatosis viral related oncogene, neuroblastoma derived (Mycn): 2.05
[1]; 20 μg eupatilin nasally once a day for 1 week
  inhibition of pulmonary fibrosis: inhibited
[1]; 40 μg eupatilin nasally once a day for 1 week
  inhibition of pulmonary fibrosis: more effectively inhibited
